Laboratory results taken from PubChem BioAssay AID248 (DTP/NCI, 2004).
Values joined by “and” are separate entries in the source; they are usually repeats but may differ in a detail not shown here. Equal entries are not always repeated. Toxic doses and inconclusive results are not listed. Cut-off read from the data, not from the text of the source: active = T/C of 150% or more; inactive = T/C below 125%.

System: L1210 leukemia ip in BDF1 mice, survival T/C
Experiment: NCI In Vivo Anticancer Drug Screen. Data for tumor model L1210 Leukemia (intraperitoneal) in B6D2F1 (BDF1) mice
Settings: endpoint: mean survival time, higher = longer survival
Outline: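 Read-out is survival time, reported as the treated-group measurement over the vehicle-control measurement.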

[1] = dose: 100.0 mg/kg/injection, schedule: Q04DX003 (ip), vehicle: Klucel (hydroxypropylcellulose) (HPC)
[2] = dose: 200.0 mg/kg/injection, schedule: Q01DX009 (ip), vehicle: Klucel (hydroxypropylcellulose) (HPC)
[3] = dose: 200.0 mg/kg/injection, schedule: Q04DX003 (ip), vehicle: Klucel (hydroxypropylcellulose) (HPC)
[4] = dose: 400.0 mg/kg/injection, schedule: Q01DX009 (ip), vehicle: Klucel (hydroxypropylcellulose) (HPC)
[5] = dose: 400.0 mg/kg/injection, schedule: Q04DX003 (ip), vehicle: Klucel (hydroxypropylcellulose) (HPC)
[6] = dose: 100.0 mg/kg/injection, schedule: Q01DX001 (ip), vehicle: saline
[7] = dose: 200.0 mg/kg/injection, schedule: Q01DX001 (ip), vehicle: saline
[8] = dose: 100.0 mg/kg/injection, schedule: Q01DX009 (ip), vehicle: saline
[9] = dose: 100.0 mg/kg/injection, schedule: Q01DX009 (ip), vehicle: Klucel (hydroxypropylcellulose) (HPC)

Measured: T/C

CCCCSSC(Cl)(Cl)Cl
inactive: dose: 6.25 mg/kg/injection, schedule: Q01DX009 (ip), vehicle: carboxymethylcellulose (CMC) 96 % of control and 104 % of control | dose: 12.5 mg/kg/injection, schedule: Q01DX001 (ip), vehicle: carboxymethylcellulose (CMC) 98 % of control | dose: 12.5 mg/kg/injection, schedule: Q01DX009 (ip), vehicle: carboxymethylcellulose (CMC) 101 % of control and 89 % of control | dose: 12.5 mg/kg/injection, schedule: Q04DX003 (ip), vehicle: carboxymethylcellulose (CMC) 96 % of control | dose: 25.0 mg/kg/injection, schedule: Q01DX001 (ip), vehicle: carboxymethylcellulose (CMC) 95 % of control | dose: 25.0 mg/kg/injection, schedule: Q01DX009 (ip), vehicle: carboxymethylcellulose (CMC) 96 % of control | dose: 25.0 mg/kg/injection, schedule: Q04DX002 (ip), vehicle: carboxymethylcellulose (CMC) 95 % of control and 107 % of control | dose: 25.0 mg/kg/injection, schedule: Q04DX003 (ip), vehicle: carboxymethylcellulose (CMC) 96 % of control | dose: 50.0 mg/kg/injection, schedule: Q01DX001 (ip), vehicle: carboxymethylcellulose (CMC) 88 % of control | dose: 50.0 mg/kg/injection, schedule: Q04DX002 (ip), vehicle: carboxymethylcellulose (CMC) 95 % of control and 101 % of control | dose: 50.0 mg/kg/injection, schedule: Q04DX003 (ip), vehicle: carboxymethylcellulose (CMC) 103 % of control and 91 % of control | dose: 200.0 mg/kg/injection, schedule: Q04DX002 (ip), vehicle: carboxymethylcellulose (CMC) 86 % of control

CN(C)C(=O)Nc1cccc(OC(=O)Nc2ccccc2)c1
inactive: dose: 100.0 mg/kg/injection, schedule: Q04DX003 (ip), vehicle: saline with Tween-80 104 % of control | dose: 200.0 mg/kg/injection, schedule: Q04DX003 (ip), vehicle: saline with Tween-80 96 % of control | dose: 400.0 mg/kg/injection, schedule: Q04DX003 (ip), vehicle: saline with Tween-80 96 % of control

NNC(=O)C12CCCCC1CCC2 (stereo not drawn)
inactive: dose: 100.0 mg/kg/injection, schedule: Q01DX009 (ip), vehicle: acetone 88 % of control | dose: 100.0 mg/kg/injection, schedule: Q04DX003 (ip), vehicle: acetone 100 % of control | dose: 200.0 mg/kg/injection, schedule: Q04DX003 (ip), vehicle: acetone 100 % of control | dose: 400.0 mg/kg/injection, schedule: Q01DX009 (ip), vehicle: acetone 87 % of control | dose: 400.0 mg/kg/injection, schedule: Q04DX003 (ip), vehicle: acetone 105 % of control

NC(=O)C1C(c2ccccc2)C1c1ccccc1 (stereo not drawn)
inactive: dose: 100.0 mg/kg/injection, schedule: Q04DX002 (ip), vehicle: Klucel (hydroxypropylcellulose) (HPC) 97 % of control | dose: 200.0 mg/kg/injection, schedule: Q04DX002 (ip), vehicle: Klucel (hydroxypropylcellulose) (HPC) 102 % of control | dose: 400.0 mg/kg/injection, schedule: Q04DX002 (ip), vehicle: Klucel (hydroxypropylcellulose) (HPC) 94 % of control

O=[N+]([O-])c1ccc(C2SCSCS2)cc1
inactive: [1] 98 % of control | [2] 90 % of control | [3] 93 % of control | [4] 95 % of control | [5] 93 % of control

O=C(Nc1ccc(Cl)cc1)Oc1ccc2ccccc2c1
inactive: dose: 100.0 mg/kg/injection, schedule: Q04DX003 (ip), vehicle: saline 103 % of control | dose: 200.0 mg/kg/injection, schedule: Q04DX003 (ip), vehicle: saline 92 % of control | dose: 400.0 mg/kg/injection, schedule: Q04DX003 (ip), vehicle: saline 97 % of control

Nc1nc2c(c(=O)[nH]1)N=C(CCNc1ccc(C(=O)O)cc1)CN2
inactive: [6] 105 % of control | [7] 109 % of control | dose: 400.0 mg/kg/injection, schedule: Q01DX001 (ip), vehicle: saline 109 % of control

COC(=O)C1=CC2C3C=C(C(=O)OC)C(C3)C2C1 (stereo not drawn)
inactive: dose: 75.0 mg/kg/injection, schedule: Q01DX001 (ip), vehicle: Klucel (hydroxypropylcellulose) (HPC) 100 % of control | dose: 150.0 mg/kg/injection, schedule: Q01DX001 (ip), vehicle: Klucel (hydroxypropylcellulose) (HPC) 103 % of control | dose: 300.0 mg/kg/injection, schedule: Q01DX001 (ip), vehicle: Klucel (hydroxypropylcellulose) (HPC) 98 % of control

CNC(=O)OCC1=CC(=O)C(C)=CC1=O
inactive: dose: 1.56 mg/kg/injection, schedule: Q01DX009 (ip), vehicle: gum acacia 96 % of control | dose: 3.12 mg/kg/injection, schedule: Q01DX009 (ip), vehicle: gum acacia 89 % of control | dose: 6.25 mg/kg/injection, schedule: Q01DX009 (ip), vehicle: gum acacia 89 % of control | dose: 12.5 mg/kg/injection, schedule: Q04DX003 (ip), vehicle: gum acacia 95 % of control | dose: 25.0 mg/kg/injection, schedule: Q04DX003 (ip), vehicle: gum acacia 103 % of control

CCOC(=O)N1CCN(C(=S)[S-])CC1.CCOC(=O)N1CCN(C(=S)[S-])CC1.[Zn]
inactive: dose: 150.0 mg/kg/injection, schedule: Q01DX001 (ip), vehicle: saline 86 % of control | dose: 300.0 mg/kg/injection, schedule: Q01DX001 (ip), vehicle: saline 87 % of control

C=CCSC(=S)SCc1cccc(Cl)c1
inactive: [8] 101 % of control | dose: 100.0 mg/kg/injection, schedule: Q04DX002 (ip), vehicle: saline 100 % of control | dose: 200.0 mg/kg/injection, schedule: Q01DX009 (ip), vehicle: saline 101 % of control | dose: 200.0 mg/kg/injection, schedule: Q04DX002 (ip), vehicle: saline 100 % of control | dose: 400.0 mg/kg/injection, schedule: Q01DX009 (ip), vehicle: saline 99 % of control | dose: 400.0 mg/kg/injection, schedule: Q04DX002 (ip), vehicle: saline 97 % of control

CCOC(=O)c1cnc(C)[nH]c1=O
inactive: dose: 12.5 mg/kg/injection, schedule: Q01DX009 (ip), vehicle: saline 100 % of control | dose: 25.0 mg/kg/injection, schedule: Q01DX009 (ip), vehicle: saline 99 % of control | dose: 50.0 mg/kg/injection, schedule: Q01DX009 (ip), vehicle: saline 94 % of control | [6] 108 % of control | [8] 101 % of control | [7] 101 % of control

COc1cccc2c1C13CC(C)CC(C2)C1CCC(=O)N3 (stereo not drawn)
inactive: [1] 100 % of control | [3] 93 % of control | [5] 102 % of control

COc1cc(CCC(=O)O)cc(OC)c1OC
inactive: dose: 100.0 mg/kg/injection, schedule: Q04DX002 (ip), vehicle: saline with Tween-80 116 % of control | dose: 200.0 mg/kg/injection, schedule: Q04DX002 (ip), vehicle: saline with Tween-80 89 % of control | dose: 400.0 mg/kg/injection, schedule: Q04DX002 (ip), vehicle: saline with Tween-80 106 % of control

O=S(=O)(Nc1ccc2c3c(cccc13)CC2)c1ccccc1
inactive: dose: 100.0 mg/kg/injection, schedule: Q01DX009 (ip), vehicle: saline with Tween-80 92 % of control | dose: 200.0 mg/kg/injection, schedule: Q01DX009 (ip), vehicle: saline with Tween-80 94 % of control | dose: 400.0 mg/kg/injection, schedule: Q01DX009 (ip), vehicle: saline with Tween-80 103 % of control

C#CC(O)(c1ccccc1)c1ccc(N2CCOCC2)cc1 (stereo not drawn)
inactive: [1] 96 % of control | [3] 96 % of control | [5] 96 % of control

CC(=O)N(C)c1ccc(NC(=O)Nc2ccccc2C(F)(F)F)cc1
inactive: [9] 95 % of control | [2] 93 % of control | [4] 103 % of control

O=c1oc(-c2ccccc2I)nc2ccccc12
inactive: dose: 50.0 mg/kg/injection, schedule: Q04DX003 (ip), vehicle: Klucel (hydroxypropylcellulose) (HPC) 88 % of control | [9] 95 % of control | [1] 103 % of control | [2] 97 % of control | [3] 97 % of control | [4] 88 % of control | [5] 104 % of control
